Results published in patent US5700445A, “N-methyl piperazine compounds having dopamine receptor affinity” (Allelix Biopharmaceuticals, Inc., priority 1994, dated 1997).

What was measured:
[1] = molecular target: T1, human D2 receptor (short isoform) (Homo sapiens, UniProt P14416); assay: D2 receptor binding assay (displacement of 3H-spiperone), reported as D2/D4 selectivity; details: ratio D2/D4; 3H-spiperone 0.25 nM; D2 short isoform vs D4.2
T1 construct: 3H-spiperone displacement
Description: (§1) The potency of the test compound to reduce ^3 H-spiperone binding directly correlated to its binding affinity for the receptor.
CH4 C1 (rat pituitary) cells stably transfected with the human D2 receptor (short isoform) were grown in CO2 independent media in roller bottles (1500 cm^2) for 10 days. 100 μM ZnSO4 was added to the cells (the D2 promoter being zinc inducible). After 16 hours, fresh media was added to allow the cells to recover for 24 hours. The cells were harvested using versine and then centrifuged in a Sorval centrifuge for 10 minutes, at 5000 rpm (GS3 rotor). Pellets were quickly frozen in liquid nitrogen and stored at -80° C. until used in the binding assays. When used in the assay, cells were thawed on ice for 20 minutes. […] The receptor protein concentration was determined using the Pierce BCA assay.
(§2) The tubes were vortexed and incubated at room temperature for 90 minutes. The binding reaction was stopped by filtering using a Brandell Cell Harvester. The samples were filtered under vacuum over glass fibre filters (Whatman GF/B) presoaked for 2 hours in 0.3% polyethylenimine (PEI) in 50 mM Tris buffer (pH 7.4). The filters were then washed 3 times with 5 ml ice cold 50 mM Tris buffer (pH 7.4). Individual filter disks were put in scintillation vials (Biovials, Bechman). Ready Protein Plus liquid scintillant (5 ml, Beckman) was added and the vials counted by liquid scintillation spectrophotometry (Beckman LSC 6500) after equilibrating for three hours at room temperature to determine total binding (BT).
This assay employed the same procedures as the non-specific binding assay for D4 with the exception that 2 μM (final conc.) of (-) sulpiride (Research Chemicals Inc.) was used in place of dopamine.
(§3) The tubes were vortexed and incubated at room temperature for 90 minutes at which time the binding reaction was stopped by filtering. The filters were washed and counted using the same procedure as in the total binding assay described above to give the displacement binding value (BD).
(§4) IC50 was determined from an inhibition response curve, logit-log plot of %B/B0 vs concentration of test compound. Ki was calculated by the Cheng and Prustoff transformation: […]
where [L] is the concentration of ^3 H-spiperone used in the assay and KD is the dissociation constant of ^3 H-spiperone determined independently under the same binding conditions.

[2] = molecular target: T2, human D4 receptor (D4.2 sub-type) (Homo sapiens, UniProt P21917, DEL265-296); assay: D4 receptor binding assay (displacement of 3H-spiperone); details: 3H-spiperone 0.25 nM, cell membranes, Cheng and Prustoff, read-out: D4 AFFINITY Ki
T2 construct: expressed in transfected cells; host or cells: HEK 298 (human embryonic kidney) cells, stably transfected
T2 sequence (P21917 with tags, fused parts or gaps DEL265-296): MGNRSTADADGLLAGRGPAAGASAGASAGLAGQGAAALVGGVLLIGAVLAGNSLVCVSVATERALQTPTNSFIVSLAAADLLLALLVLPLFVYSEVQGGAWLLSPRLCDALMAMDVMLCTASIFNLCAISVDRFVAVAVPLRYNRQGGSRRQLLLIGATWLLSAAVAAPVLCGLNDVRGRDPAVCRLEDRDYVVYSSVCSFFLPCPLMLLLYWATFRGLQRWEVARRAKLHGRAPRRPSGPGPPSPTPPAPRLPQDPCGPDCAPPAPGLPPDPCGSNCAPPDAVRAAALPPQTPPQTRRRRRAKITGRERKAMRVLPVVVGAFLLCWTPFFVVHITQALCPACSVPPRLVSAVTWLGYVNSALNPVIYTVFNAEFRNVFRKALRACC
Description: as §1
The cells were then centrifuged in a Sorval centrifuge for 10 min, 5000 rpm (GS3 rotor) and the pellets quickly frozen in liquid nitrogen and stored at -80° C. until used in binding assay. When used in the assay, cells were thawed on ice for 20 min and then 10 ml of incubation buffer (50 mM Tris, 1 mM EDTA, 4 mM MgCl2, 5 mM KCl, 1.5 mM CaCl2, 120 mM NaCl, pH 7.4) was added. […] Concentration of receptor protein was determined using the Pierce BCA assay.
as §2
The tubes were vortexed and incubated at room temperature for 90 minutes at which time the binding reaction was stopped by filtering. The filters were washed and counted using the same procedure as in the total binding assay described above to give the non-specific binding value (NSB).
as §3, §4

[3] = molecular target: T3, human D4 receptors (Homo sapiens, UniProt P21917); assay: Functional antagonist assay: reversal of dopamine inhibition of forskolin-stimulated adenyl cyclase (cAMP) in CHO Pro 5 cells; format: cell-based; details: dopamine and forskolin both 10 μM, read-out: % REVERSAL OF DOPAMINE EFFECT
T3 construct: expressed in transfected cells; host or cells: CHO Pro 5 cells, stably expressing
T3 sequence (P21917 1-419): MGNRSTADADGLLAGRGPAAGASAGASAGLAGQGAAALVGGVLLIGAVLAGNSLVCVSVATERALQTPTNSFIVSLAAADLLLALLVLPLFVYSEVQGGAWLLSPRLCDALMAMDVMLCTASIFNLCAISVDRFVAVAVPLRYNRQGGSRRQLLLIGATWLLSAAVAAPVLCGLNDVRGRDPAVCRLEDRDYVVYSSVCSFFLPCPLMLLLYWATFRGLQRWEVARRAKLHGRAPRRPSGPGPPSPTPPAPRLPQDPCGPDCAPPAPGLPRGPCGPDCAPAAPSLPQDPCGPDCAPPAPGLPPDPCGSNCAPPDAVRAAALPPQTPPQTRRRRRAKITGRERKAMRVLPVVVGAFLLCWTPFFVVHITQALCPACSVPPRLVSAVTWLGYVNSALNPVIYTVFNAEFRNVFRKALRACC
Description: The D4 receptor responds to dopamine and other agonists by reducing adenyl cyclase mediated production of cyclic AMP. […] Forskolin was used to elevate the basal adenyl cyclase activity.
(§5) CHO Pro 5 cells stably expressing human D4 receptors were plated in 6 well plates in DMEM (Dulbecco's Modified Eagle Medium)/F12(Nutrient Mixture F12 (Ham)) media with 10% FCS (fetal calf serum) and G418 (Geneticen Disulfate), and incubated at 37° C. in a CO2 incubator. The cells were allowed to grow to about 70% confluence before use in the assay.
Basal adenyl cyclase activity was determined from wells with only SFM+IBMX media added.
The cells were then incubated at 37° C. for 30 minutes in a CO2 incubator. Following incubation the media was aspirated from each well and then washed once with 2 mL of PBS (phosphate buffered saline). […] The cells from each well were then scraped and transferred into individual Eppendorf tubes. […]
Total inhibition (I0) of forskolin-stimulated adenyl cyclase activity by dopamine was determined as the difference in concentration of cAMP in the forskolin-treated cells (Cf) and dopamine-forskolin treated cells (Cd).
Net inhibition (I) of forskolin-stimulated adenyl cyclase activity by dopamine in the presence of an antagonist was determined as the difference in concentration of cAMP in the forskolin-treated cells (Cf) and test compound, dopamine and forskolin treated cells (C).

[4] = molecular target: T3, human D4 receptors; assay: Functional agonist assay: decrease in forskolin-stimulated cAMP in D4 stably expressing CHO cells; format: cell-based; details: forskolin 10 μM
Description: The D4 receptor responds to dopamine and other agonists by reducing adenyl cyclase mediated production of cyclic AMP. Particular test compound 4-chloro-5H-dibenzo[b,e][1,4]diazepine was assayed for its ability to reverse dopamine inhibition of adenyl cyclase by the following procedure. Forskolin was used to elevate the basal adenyl cyclase activity.
as §5
To D4 stably expressing CHO cells prepared as previously described were added test compound and forskolin (10 μM final concentration). The cells were incubated, extracted and measured for cAMP concentration as above. Agonist activity of a test compound would result in a decrease in cAMP concentration compared to cells treated with forskolin (Cf) only.

[5] = molecular target: D4 receptor; details: background, marketed products; read-out: D4 affinity, Ki; cited from earlier work

T1 sequence (P14416 with tags, fused parts or gaps DEL242-270): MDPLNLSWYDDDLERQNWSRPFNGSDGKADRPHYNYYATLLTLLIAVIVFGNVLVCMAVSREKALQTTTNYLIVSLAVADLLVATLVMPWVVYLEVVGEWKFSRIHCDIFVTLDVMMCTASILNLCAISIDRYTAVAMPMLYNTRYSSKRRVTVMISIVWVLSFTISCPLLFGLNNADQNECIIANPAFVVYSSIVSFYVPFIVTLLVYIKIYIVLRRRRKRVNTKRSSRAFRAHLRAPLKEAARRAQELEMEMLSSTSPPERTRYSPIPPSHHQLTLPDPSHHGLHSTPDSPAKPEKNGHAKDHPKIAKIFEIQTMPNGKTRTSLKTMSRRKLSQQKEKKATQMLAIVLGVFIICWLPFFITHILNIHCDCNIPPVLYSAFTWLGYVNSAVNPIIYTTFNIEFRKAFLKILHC

Row | Compound | SELECTIVITY FOR D4, D2/D4 [1] | Ki [2] [nM] | also measured
1 | CN1CCN(C2=Nc3ccccc3Nc3cccc(F)c32)CC1 [1-fluoro-11-(4-methyl-1-piperazinyl)-5H-dibenz[b,e][1,4]diazepine] | 12.6 | – | –
2 | CN1CCN(C2=Nc3cc(Cl)c(Cl)cc3Nc3ccc(Cl)cc32)CC1 [2,7,8-trichloro-11-(4-methyl-1-piperazinyl)-5H-dibenzo[b,e][1,4]diazepine] | 10.7 | – | –
3 | CN1CCN(C2=Cc3cc(C#N)ccc3Sc3ccccc32)CC1 [2-cyano-10-(4-methyl-piperazinyl)-dibenzo[b,f]thiepine] | 21.4 | 4.5 | –
4 | CN1CCN(C2=Nc3ccccc3Nc3ccc(C(F)(F)F)cc32)CC1 [2-trifluoromethyl-11-(4-methyl-1-piperazinyl)-5H-dibenzo[b,e][1,4]diazepine] | – | 14.2 | –
5 | CN1CCN(C2=Nc3cc(Cl)c(Cl)cc3Nc3c(Cl)cccc32)CC1 [4,7,8-trichloro-11-(4-methyl-1-piperazinyl)-5H-dibenzo[b,e][1,4]diazepine] | 18.8 | – | –
6 | CN1CCN(C2=Nc3ccccc3Nc3c(Cl)cccc32)CC1 [4-Chloro-11-(4-methyl-1-piperazinyl)-5H-dibenzo[b,e][1,4]diazepine] | 187.5 | 16.7 | inhibition at 1 µM ([3]; 1 μM test compound): 16%; inhibition at 10 µM ([3]; 10 μM test compound): 58%; dopamine agonist activity (decrease in cAMP compared to cells treated with forskolin) [4]: no dopamine agonist activity
7 | CN1CCN(C2=Nc3ccccc3Oc3c(C#N)cccc32)CC1 [4-cyano-11-(4-methyl-1-piperazinyl)dibenz[b,f][1,4]oxazepine] | 64.4 | – | –
8 | CN1CCN(C2=Nc3ccccc3Oc3c2cccc3[N+](=O)[O-])CC1 [4-nitro-11-(4-methyl-1-piperazinyl)dibenz[b,f][1,4]oxazepine] | 21.4 | – | –
9 | Cc1cc2c(cc1C)Nc1ccccc1C(N1CCN(C)CC1)=N2 [7,8-dimethyl-11-(4-methyl-1-piperazinyl)-5H-dibenzo[b,e][1,4]diazepine] | 10.6 | – | –
10 | CN1CCN(C2=Nc3cc(Cl)ccc3Oc3ccccc32)CC1 [isoloxapine] | – | – | Ki [5]: ~20 nM
